{"source": "patent US4921941A", "about": "“Orally active antiandrogens” (Schering Corporation, priority 1987, dated 1990)", "key": {"[1]": {"experiment": "Plasma concentrations of flutamide active metabolite in rats after single oral doses of various esters (0-4 hours), gas-liquid chromatography", "type": "in vivo, male Sprague Dawley rats", "settings": "rat; for Relative Rank (0-4 hour area): oral, 0-4 hour area relative to flutamide = 1.00; for Area under the 0-4 hour plasma level curve of flutamide active metabolite (0-4 Hours) / Plasma concentration of flutamide active metabolite, 2 Hours / Plasma concentration of flutamide active metabolite, 4 Hours: single oral dose, normalized to a 5 mg/kg dose of flutamide active metabolite; for Plasma concentration of flutamide active metabolite, 2 Hours / Plasma concentration of flutamide active metabolite, 4 Hours: average of 2 animals"}, "[2]": {"experiment": "Plasma concentrations of flutamide active metabolite for up to 16 hours after administration of esters or flutamide", "type": "in vivo, rats", "settings": "rat; for 0-16 hr (area under the plasma level curve of flutamide active metabolite) / Plasma concentration of flutamide active metabolite, 0.5 hr / Plasma concentration of flutamide active metabolite, 1 hr / Plasma concentration of flutamide active metabolite, 2 hr / Plasma concentration of flutamide active metabolite, 4 hr / Plasma concentration of flutamide active metabolite, 8 hr / Plasma concentration of flutamide active metabolite, 16 hr: normalized to a 5 mg/kg dose of flutamide active metabolite; for Plasma concentration of flutamide active metabolite, 0.5 hr / Plasma concentration of flutamide active metabolite, 1 hr / Plasma concentration of flutamide active metabolite, 2 hr / Plasma concentration of flutamide active metabolite, 4 hr / Plasma concentration of flutamide active metabolite, 8 hr / Plasma concentration of flutamide active metabolite, 16 hr: average of 3 animals; for Relative Rank (0-16 hr): 0-16 hr area relative to flutamide = 1.00", "experimental": "Plasma concentrations of the flutamide active metabolite were determined by gas-liquid chromatography in 300-350 gram male Sprague Dawley rats following single oral 5 mg/kg doses of the compounds listed. […]"}}}
{"compound": "CNCC(=O)OC(C)(C)C(=O)Nc1ccc([N+](=O)[O-])c(C(F)(F)F)c1", "note": "[sar]", "values": [{"measurement": "Relative Rank (0-4 hour area)", "setting": "[1]", "value": 1.52}, {"measurement": "Area under the 0-4 hour plasma level curve of flutamide active metabolite (0-4 Hours)", "setting": "[1]", "value": 3650, "unit": "ng·h/mL"}, {"measurement": "Plasma concentration of flutamide active metabolite, 2 Hours", "setting": "[1]", "value": 1345, "unit": "ng/mL"}, {"measurement": "Plasma concentration of flutamide active metabolite, 4 Hours", "setting": "[1]", "value": 958, "unit": "ng/mL"}]}
{"compound": "L-Proline-[1-methyl-[[4-nitro-3-trifluoromethyl)phenyl]aminocarbonyl]ethyl ]ester, hydrochloride", "values": [{"measurement": "Relative Rank (0-4 hour area)", "setting": "[1]", "value": 1.46}, {"measurement": "Area under the 0-4 hour plasma level curve of flutamide active metabolite (0-4 Hours)", "setting": "[1]", "value": 3510, "unit": "ng·h/mL"}, {"measurement": "Plasma concentration of flutamide active metabolite, 2 Hours", "setting": "[1]", "value": 1059, "unit": "ng/mL"}, {"measurement": "Plasma concentration of flutamide active metabolite, 4 Hours", "setting": "[1]", "value": 1393, "unit": "ng/mL"}]}
{"compound": "CN(CC(=O)OC(C)(C)C(=O)Nc1ccc([N+](=O)[O-])c(C(F)(F)F)c1)C(=O)CNC(=O)[C@@H](N)CCCCN", "note": "[lys--gly--sar, L-lysyl-glycyl-N-methylglycine, [1-methyl-[[4-nitro-3-(trifluoromethyl)phenyl]aminocarbonyl]ethyl]ester]", "values": [{"measurement": "Relative Rank (0-4 hour area)", "setting": "[1]", "value": 1.44}, {"measurement": "Area under the 0-4 hour plasma level curve of flutamide active metabolite (0-4 Hours)", "setting": "[1]", "value": 3450, "unit": "ng·h/mL"}, {"measurement": "Plasma concentration of flutamide active metabolite, 2 Hours", "setting": "[1]", "value": 1103, "unit": "ng/mL"}, {"measurement": "Plasma concentration of flutamide active metabolite, 4 Hours", "setting": "[1]", "value": 1248, "unit": "ng/mL"}]}
{"compound": "CC(C)C(=O)Nc1ccc([N+](=O)[O-])c(C(F)(F)F)c1", "note": "[H (flutamide), 2-methyl-N-[4-nitro-3-(trifluoromethyl)phenyl]propanamide, reference compound]", "values": [{"measurement": "0-16 hr (area under the plasma level curve of flutamide active metabolite)", "setting": "[2]", "value": 8270, "unit": "ng·h/mL"}, {"measurement": "Plasma concentration of flutamide active metabolite, 0.5 hr", "setting": "[2]", "value": 210, "unit": "ng/mL"}, {"measurement": "Plasma concentration of flutamide active metabolite, 1 hr", "setting": "[2]", "value": 322, "unit": "ng/mL"}, {"measurement": "Plasma concentration of flutamide active metabolite, 2 hr", "setting": "[2]", "value": 614, "unit": "ng/mL"}, {"measurement": "Plasma concentration of flutamide active metabolite, 4 hr", "setting": "[2]", "value": 722, "unit": "ng/mL"}, {"measurement": "Plasma concentration of flutamide active metabolite, 8 hr", "setting": "[2]", "value": 649, "unit": "ng/mL"}, {"measurement": "Plasma concentration of flutamide active metabolite, 16 hr", "setting": "[2]", "value": 236, "unit": "ng/mL"}, {"measurement": "Relative Rank (0-16 hr)", "setting": "[2]", "value": 1.00}, {"measurement": "Relative Rank (0-4 hour area)", "setting": "[1]", "value": 1.00}, {"measurement": "Area under the 0-4 hour plasma level curve of flutamide active metabolite (0-4 Hours)", "setting": "[1]", "value": 2400, "unit": "ng·h/mL"}, {"measurement": "Plasma concentration of flutamide active metabolite, 2 Hours", "setting": "[1]", "value": 715, "unit": "ng/mL"}, {"measurement": "Plasma concentration of flutamide active metabolite, 4 Hours", "setting": "[1]", "value": 974, "unit": "ng/mL"}]}
{"compound": "CC(C)(OC(=O)[C@@H]1CCCN1C(=O)CNC(=O)[C@@H](N)CCCCN)C(=O)Nc1ccc([N+](=O)[O-])c(C(F)(F)F)c1.Cl.Cl", "note": "[lys--gly--pro, L-lysyl-glycyl-L-proline-[1-methyl-[[4-nitro-3-(trifluoromethyl)phenyl]aminocarbonyl]ethyl]ester, dihydrochloride]", "values": [{"measurement": "0-16 hr (area under the plasma level curve of flutamide active metabolite)", "setting": "[2]", "value": 15600, "unit": "ng·h/mL"}, {"measurement": "Plasma concentration of flutamide active metabolite, 0.5 hr", "setting": "[2]", "value": 1392, "unit": "ng/mL"}, {"measurement": "Plasma concentration of flutamide active metabolite, 1 hr", "setting": "[2]", "value": 1907, "unit": "ng/mL"}, {"measurement": "Plasma concentration of flutamide active metabolite, 2 hr", "setting": "[2]", "value": 1751, "unit": "ng/mL"}, {"measurement": "Plasma concentration of flutamide active metabolite, 4 hr", "setting": "[2]", "value": 1170, "unit": "ng/mL"}, {"measurement": "Plasma concentration of flutamide active metabolite, 8 hr", "setting": "[2]", "value": 1054, "unit": "ng/mL"}, {"measurement": "Plasma concentration of flutamide active metabolite, 16 hr", "setting": "[2]", "value": 256, "unit": "ng/mL"}, {"measurement": "Relative Rank (0-16 hr)", "setting": "[2]", "value": 1.89}, {"measurement": "Relative Rank (0-4 hour area)", "setting": "[1]", "value": 2.66}, {"measurement": "Area under the 0-4 hour plasma level curve of flutamide active metabolite (0-4 Hours)", "setting": "[1]", "value": 6400, "unit": "ng·h/mL"}, {"measurement": "Plasma concentration of flutamide active metabolite, 2 Hours", "setting": "[1]", "value": 2277, "unit": "ng/mL"}, {"measurement": "Plasma concentration of flutamide active metabolite, 4 Hours", "setting": "[1]", "value": 1847, "unit": "ng/mL"}]}
{"compound": "C[C@H](N)C(=O)NCC(=O)N(C)CC(=O)OC(C)(C)C(=O)Nc1ccc([N+](=O)[O-])c(C(F)(F)F)c1", "note": "[ala--gly--sar, L-alanyl-glycyl-N-methylglycine, [1-methyl-[[4-nitro-3-(trifluoromethyl)phenyl]aminocarbonyl]ethyl]ester]", "values": [{"measurement": "0-16 hr (area under the plasma level curve of flutamide active metabolite)", "setting": "[2]", "value": 17200, "unit": "ng·h/mL"}, {"measurement": "Plasma concentration of flutamide active metabolite, 0.5 hr", "setting": "[2]", "value": 1079, "unit": "ng/mL"}, {"measurement": "Plasma concentration of flutamide active metabolite, 1 hr", "setting": "[2]", "value": 2029, "unit": "ng/mL"}, {"measurement": "Plasma concentration of flutamide active metabolite, 2 hr", "setting": "[2]", "value": 1365, "unit": "ng/mL"}, {"measurement": "Plasma concentration of flutamide active metabolite, 4 hr", "setting": "[2]", "value": 1803, "unit": "ng/mL"}, {"measurement": "Plasma concentration of flutamide active metabolite, 8 hr", "setting": "[2]", "value": 1005, "unit": "ng/mL"}, {"measurement": "Plasma concentration of flutamide active metabolite, 16 hr", "setting": "[2]", "value": 423, "unit": "ng/mL"}, {"measurement": "Relative Rank (0-16 hr)", "setting": "[2]", "value": 2.08}, {"measurement": "Relative Rank (0-4 hour area)", "setting": "[1]", "value": 2.09}, {"measurement": "Area under the 0-4 hour plasma level curve of flutamide active metabolite (0-4 Hours)", "setting": "[1]", "value": 5020, "unit": "ng·h/mL"}, {"measurement": "Plasma concentration of flutamide active metabolite, 2 Hours", "setting": "[1]", "value": 1952, "unit": "ng/mL"}, {"measurement": "Plasma concentration of flutamide active metabolite, 4 Hours", "setting": "[1]", "value": 1115, "unit": "ng/mL"}]}
